# Results from patent publication US6335356B1, “Method of treating a patient by parenteral administration of a lipophilic compound” (Sugen, Inc., priority 1994, dated 2002).
# Tests used:
# [1] = Ability of leflunomide solutions to be diluted with aqueous solutions; format: physicochemical; settings: for Solubility: organic solvent or mixture, read-out: concentration soluble and allowing dilution with aqueous solutions
# Protocol: (§1) Leflunomide has a low solubility in standard formulations used to dissolve compounds for parenteral administration. For example, the solubility of leflunomide in VPD (126 mg alcohol, 40 mg POLYSORBATE 80®, 3 mg citric acid, 15 mg benzyl alcohol, and 325 mg PEG MW300; also referred to as PBTE) is about 60 mg/ml. Parenterally administered VPD formulations should be diluted at least 1:2 with a pharmaceutically acceptable aqueous solution to avoid toxic effects. Such dilution can result in precipitation of lipophilic compounds. For leflunomide, a concentration in VPD greater than about 5 mg/ml precipitates when diluted 1:2 with a pharmaceutically aqueous solution such as WFI. Leflunomide was solubilized in varying ratios of POLYSORBATE 80® and alcohol. The leflunomide solutions were then tested for the ability to dilute with aqueous solutions.
# [2] = Solubility of leflunomide in vehicles (POLYSORBATE 80:alcohol ratios, alcohol, VPD/PBTE); format: physicochemical
# Protocol: as §1, with “WFI.” for “WFI. Leflunomide was solubilized in varying ratios of POLYSORBATE 80® and alcohol. The leflunomide solutions were then tested for the ability to dilute with aqueous solutions.”
# Increasing the solubility of leflunomide allows more leflunomide to be administered to a patient via parenteral administration. The formulations described by the present invention can use alcohol and a surfactant to solubilize leflunomide. Leflunomide is soluble in alcohol at 100 mg/ml. The surfactant is added to allow for the dilution into a pharmaceutically acceptable aqueous solution prior to injection.
# Leflunomide was solubilized in varying ratios of POLYSORBATE 80® and alcohol. The leflunomide solutions were then tested for the ability to dilute with aqueous solutions.
# As noted above, the stability of leflunomide in solution is pH dependent. To stabilize leflunomide varying amounts of citric acid (1 to 20 mg/ml) were added to both 33%T:66%E and 66%T:33%E. The citric acid decreased the apparent pH of the solutions.
# [3] = format: physicochemical
# Text: The pH of the formulations can be adjusted with a pharmaceutically acceptable excipient. For example, the apparent pH of the POLYSORBATE 80®:alcohol formulations can be adjusted with citric acid.
# [4] = Physical stability (precipitation) of leflunomide solutions over time; format: physicochemical
compound,measurement,setting,value
"Cc1oncc1C(=O)Nc1ccc(C(F)(F)F)cc1 [Leflunomide, 5-methylisoxazole-4 carboxylic acid-(4-trifluromethyl)-anilide]",Solubility,"[1]; POLYSORBATE 80:alcohol vehicle 33%T:66%E, in 33%T:66%E",25 mg/mL
same,Solubility,"[1]; POLYSORBATE 80:alcohol vehicle 66%T:33%E, in 66%T:33%E",50 mg/mL
same,concentration in VPD that precipitates when diluted 1:2,[1]; VPD diluted 1:2 with pharmaceutically aqueous solution such as WFI,greater than 5 mg/ml
same,solubility after addition of citric acid,[2]; 33%:66%E with citric acid 1 to 20 mg/ml,no longer soluble to the same extent
same,Solubility,"[2]; VPD (PBTE) parenteral vehicle, organic solvent or mixture, VPD (126 mg alcohol, 40 mg POLYSORBATE 80, 3 mg citric acid, 15 mg benzyl alcohol, 325 mg PEG MW300; also PBTE), read-out: solubility in VPD",~60 mg/mL
same,Solubility,"[2]; alcohol, organic solvent or mixture, read-out: soluble in alcohol at",100 mg/mL
same,Solubility,"[2]; vehicle 33%T:66%E (POLYSORBATE 80:alcohol v/v), 100 mg/ml",Insoluble
same,Solubility,"[2]; vehicle 33%T:66%E, 25 mg/ml",Soluble
same,Solubility,"[2]; vehicle 33%T:66%E, 50 mg/ml",Soluble
same,Solubility,"[2]; vehicle 50%T:50%E, 50 mg/ml",Soluble
same,Solubility,"[2]; vehicle 50%T:50%E, 55 mg/ml",Soluble
same,Solubility,"[2]; vehicle 50%T:50%E, 60 mg/ml",Soluble
same,Solubility,"[2]; vehicle 50%T:50%E, 75 mg/ml",Soluble
same,Solubility,"[2]; vehicle 50%T:50%E, 100 mg/ml",Soluble
same,Solubility,"[2]; vehicle 66%T:33%E, 50 mg/ml",Soluble
same,Solubility,"[2]; vehicle 66%T:33%E, 100 mg/ml",Insoluble
same,Solubility,"[2]; vehicle PBTE6C:WFI, 2.5 mg/ml",Soluble
same,Solubility,"[2]; vehicle alcohol, 100 mg/ml",Soluble
same,stability in solution,[3],breakdown to N-(4-trifluoromethylphenyl)-2-cyano-3-hydroxycrotonamide
same,remaining in solution,"[4]; 20 mg/ml in 33%T:66%E with citric acid, 2-8° C. for 7 days",precipitate started to occur
same,remaining in solution,"[4]; 20 mg/ml in 33%T:66%E with either 4 or 6 mg/ml citric acid, 4° C.",remains in solution
same,remaining in solution,"[4]; 20 mg/ml in 33%T:66%E with either 4 or 6 mg/ml citric acid, room temperature",remains in solution
same,remaining in solution with time,"[4]; 25 mg/ml in 33%T:66%E, diluted with aqueous solutions, room temperature (22° C. to 26° C.), over 3 days",falls out of solution
